{
  "source": "PubChem BioAssay AID1259407",
  "about": "(Chemical Carcinogenesis Research Information System (CCRIS), 2018)",
  "test_system": "CCRIS mutagenicity, Ames/micronucleus/aberration tests",
  "test": "CCRIS mutagenicity studies",
  "note": "Active and inactive are the calls of the source. How the calls were made is not given here.",
  "data": [
    {"compound": "Cc1cc(=O)oc2cc(O)cc(O)c12", "values": [
      {"measurement": "mutagenic call", "setting": "Test System: AMES SALMONELLA TYPHIMURIUM, Strain/Indicator: TA98, Metabolic Activation: HAMSTER, LIVER, S-9, AROCLOR 1254, Method: PREINCUBATION", "result": "inactive; negative"},
      {"measurement": "mutagenic call", "setting": "Test System: AMES SALMONELLA TYPHIMURIUM, Strain/Indicator: TA98, Metabolic Activation: NONE, Method: PREINCUBATION", "result": "inactive; negative"},
      {"measurement": "mutagenic call", "setting": "Test System: AMES SALMONELLA TYPHIMURIUM, Strain/Indicator: TA98, Metabolic Activation: RAT, LIVER, S-9, AROCLOR 1254, Method: PREINCUBATION", "result": "inactive; negative"},
      {"measurement": "mutagenic call", "setting": "Test System: AMES SALMONELLA TYPHIMURIUM, Strain/Indicator: TA100, Metabolic Activation: HAMSTER, LIVER, S-9, AROCLOR 1254, Method: PREINCUBATION", "result": "inactive; negative"},
      {"measurement": "mutagenic call", "setting": "Test System: AMES SALMONELLA TYPHIMURIUM, Strain/Indicator: TA100, Metabolic Activation: NONE, Method: PREINCUBATION", "result": "inactive; negative"},
      {"measurement": "mutagenic call", "setting": "Test System: AMES SALMONELLA TYPHIMURIUM, Strain/Indicator: TA100, Metabolic Activation: RAT, LIVER, S-9, AROCLOR 1254, Method: PREINCUBATION", "result": "inactive; negative"},
      {"measurement": "mutagenic call", "setting": "Test System: AMES SALMONELLA TYPHIMURIUM, Strain/Indicator: TA1535, Metabolic Activation: HAMSTER, LIVER, S-9, AROCLOR 1254, Method: PREINCUBATION", "result": "inactive; negative"},
      {"measurement": "mutagenic call", "setting": "Test System: AMES SALMONELLA TYPHIMURIUM, Strain/Indicator: TA1535, Metabolic Activation: NONE, Method: PREINCUBATION", "result": "inactive; negative"},
      {"measurement": "mutagenic call", "setting": "Test System: AMES SALMONELLA TYPHIMURIUM, Strain/Indicator: TA1535, Metabolic Activation: RAT, LIVER, S-9, AROCLOR 1254, Method: PREINCUBATION", "result": "inactive; negative"},
      {"measurement": "mutagenic call", "setting": "Test System: AMES SALMONELLA TYPHIMURIUM, Strain/Indicator: TA1537, Metabolic Activation: HAMSTER, LIVER, S-9, AROCLOR 1254, Method: PREINCUBATION", "result": "inactive; negative"},
      {"measurement": "mutagenic call", "setting": "Test System: AMES SALMONELLA TYPHIMURIUM, Strain/Indicator: TA1537, Metabolic Activation: NONE, Method: PREINCUBATION", "result": "inactive; negative"},
      {"measurement": "mutagenic call", "setting": "Test System: AMES SALMONELLA TYPHIMURIUM, Strain/Indicator: TA1537, Metabolic Activation: RAT, LIVER, S-9, AROCLOR 1254, Method: PREINCUBATION", "result": "inactive; negative"}
    ]},
    {"compound": "CCCCCON=O", "values": [
      {"measurement": "mutagenic call", "setting": "Test System: AMES SALMONELLA TYPHIMURIUM, Strain/Indicator: TA98, Metabolic Activation: HAMSTER, LIVER, S-9, AROCLOR 1254, Method: STANDARD PLATE", "result": "inactive; negative"},
      {"measurement": "mutagenic call", "setting": "Test System: AMES SALMONELLA TYPHIMURIUM, Strain/Indicator: TA98, Metabolic Activation: NONE, Method: STANDARD PLATE", "result": "inactive; negative"},
      {"measurement": "mutagenic call", "setting": "Test System: AMES SALMONELLA TYPHIMURIUM, Strain/Indicator: TA98, Metabolic Activation: RAT, LIVER, S-9, AROCLOR 1254, Method: STANDARD PLATE", "result": "inactive; negative"},
      {"measurement": "mutagenic call", "setting": "Test System: AMES SALMONELLA TYPHIMURIUM, Strain/Indicator: TA100, Metabolic Activation: HAMSTER, LIVER, S-9, AROCLOR 1254, Method: STANDARD PLATE", "result": "active; positive"},
      {"measurement": "mutagenic call", "setting": "Test System: AMES SALMONELLA TYPHIMURIUM, Strain/Indicator: TA100, Metabolic Activation: NONE, Method: STANDARD PLATE", "result": "active; positive"},
      {"measurement": "mutagenic call", "setting": "Test System: AMES SALMONELLA TYPHIMURIUM, Strain/Indicator: TA100, Metabolic Activation: RAT, LIVER, S-9, AROCLOR 1254, Method: STANDARD PLATE", "result": "inactive; negative"},
      {"measurement": "mutagenic call", "setting": "Test System: AMES SALMONELLA TYPHIMURIUM, Strain/Indicator: TA1535, Metabolic Activation: HAMSTER, LIVER, S-9, AROCLOR 1254, Method: STANDARD PLATE", "result": "active; positive"},
      {"measurement": "mutagenic call", "setting": "Test System: AMES SALMONELLA TYPHIMURIUM, Strain/Indicator: TA1535, Metabolic Activation: NONE, Method: STANDARD PLATE", "result": "active; positive"},
      {"measurement": "mutagenic call", "setting": "Test System: AMES SALMONELLA TYPHIMURIUM, Strain/Indicator: TA1535, Metabolic Activation: RAT, LIVER, S-9, AROCLOR 1254, Method: STANDARD PLATE", "result": "active; positive"},
      {"measurement": "mutagenic call", "setting": "Test System: AMES SALMONELLA TYPHIMURIUM, Strain/Indicator: TA1537, Metabolic Activation: HAMSTER, LIVER, S-9, AROCLOR 1254, Method: STANDARD PLATE", "result": "inactive; negative"},
      {"measurement": "mutagenic call", "setting": "Test System: AMES SALMONELLA TYPHIMURIUM, Strain/Indicator: TA1537, Metabolic Activation: NONE, Method: STANDARD PLATE", "result": "inactive; negative"},
      {"measurement": "mutagenic call", "setting": "Test System: AMES SALMONELLA TYPHIMURIUM, Strain/Indicator: TA1537, Metabolic Activation: RAT, LIVER, S-9, AROCLOR 1254, Method: STANDARD PLATE", "result": "inactive; negative"},
      {"measurement": "mutagenic call", "setting": "Test System: MOUSE LYMPHOMA, Strain/Indicator: L5178Y (TK+/TK-), Metabolic Activation: NONE, Method: SUSPENSION/PLATE", "result": "inactive; negative. reevaluation of results: inconclusive/negative"},
      {"measurement": "mutagenic call", "setting": "Test System: MOUSE LYMPHOMA, Strain/Indicator: L5178Y (TK+/TK-), Metabolic Activation: RAT, LIVER, S-9, AROCLOR 1254, Method: SUSPENSION/PLATE", "result": "inactive; negative. reevaluation of results: negative"}
    ]}
  ]
}
